Where two headings read alike, the source gives them in different places.
Key:
Glioblastoma U373 cells = experiment: Cell proliferation, 24 h drug exposure; assay type: cell-based, human; conditions: Glioblastoma U373, 24 h, read-out: IC50 for proliferation cell rate
Method: (§1) All metastatic (breast MDA-MB231, MDA-MB468, cervix HeLa, prostate PC3, colorectal HCT116, COLO205, glioblastoma U373), low-metastatic (breast MCF-7) cancer and non-cancer (fibroblast 3T3, cardiomyocytes H9C2) cell lines (American Type Culture Collection, Rockville, MD, USA) used in this study were cultured in Petri dishes in 20 mL of Dulbecco’s Modified Eagle’s Medium (DMEM, Sigma, MO, USA) supplemented with 10% fetal bovine serum (Biowest, Mexico) and 10,000 U penicillin/streptomycin (Sigma-Aldrich, MO, USA). […] For growth and maintenance, cells were incubated in 5% CO2/95% air at 37°C and kept until 80–90% of confluence was reached. Then, cells were harvested, washed by centrifugation and resuspended in Krebs-Ringer buffer (KR, 125 mM NaCl, 5 mM KCl, 25 mM Hepes, 1 mM MgCl2, 1 mM KH2PO4, 1.4 mM CaCl2, pH 7.4) for further use. For experimentation, cancer cells (3–5 x 10^6 cells) were cultured in DMEM (with 25 mM glucose) for 24 h in the absence of drugs. Afterwards, old-medium was replaced with fresh DMEM medium (with 25 mM glucose) in the absence (control, non-treated cells) or in the presence of logarithmic concentrations of Aur and MA for 24 h more, under the same culture conditions described above. Viability of cultured cells was determined by the trypan blue exclusion assay. The protein concentration was determined by the Lowry method.
(§2) For cell proliferation in the presence of drugs, cancer cells (20 x 10^3 cells/well) were grown in 96-well plates containing DMEM (Sigma-Aldrich) plus 10% bovine fetal serum for 24 h. […] The effect of these drugs on cell proliferation was determined in 96-well plates by the MTT (3-[4,5-dimethyl-thiazol-2-yl]-2,5-diphenyltetrazolium bromide) assay. The viability of cancer cells was > 95% after treatment with drugs.

Cervix HeLa cells = experiment: Cell proliferation, 24 h drug exposure; assay type: cell-based, human; conditions: Cervix HeLa, 24 h, read-out: IC50 for proliferation cell rate
Method: as §1, §2

HeLa cells = tested on: HeLa cells; parameters: method as in PMID 33333716; conditions: CP alone at doses of Table 5; cited from earlier work
Breast MDA-MB-231 cells = experiment: Cell proliferation, 24 h drug exposure; assay type: cell-based, human; conditions: Breast MDA-MB-231, 24 h, read-out: IC50 for proliferation cell rate
Method: as §1
(§3) For cell proliferation in the presence of drugs, cancer cells (20 x 10^3 cells/well) were grown in 96-well plates containing DMEM (Sigma-Aldrich) plus 10% bovine fetal serum for 24 h. Afterwards, Aur or MA (0.01, 0.1, 10 and 100 μM) were added to the cell cultures and incubated for additional 24 h. The effect of these drugs on cell proliferation was determined in 96-well plates by the MTT (3-[4,5-dimethyl-thiazol-2-yl]-2,5-diphenyltetrazolium bromide) assay. The viability of cancer cells was > 95% after treatment with drugs.

cancer cell lines = experiment: Cancer cell proliferation, pooled over the cell lines of Table 1; assay type: cell-based, human; conditions: for IC50: Homo sapiens, cancer cells, 24 h, read-out: IC50 values on cancer cell proliferation (range over cell lines)
Method: as §1, §2

3T3 mouse fibroblasts = experiment: Cell proliferation, 24 h drug exposure (non cancer cells); assay type: cell-based; conditions: Fibroblast, 3T3 mouse fibroblasts (non cancer), read-out: IC50 for proliferation cell rate
Method: as §1, §3

[1] = tested on: H9C2 mouse cardiomyocytes; experiment: as above; assay type: cell-based; conditions: read-out: IC50 for proliferation cell rate
Method: as §1, §3

[2] = tested on: HeLa, U373, HCT116, MDA-MB-231 and MDA-MB-468 cells; experiment: Cell invasiveness, Boyden chamber; assay type: cell-based, human; conditions: perhexiline 4–20 μM; 24 h
Method: The 96-multiwell Boyden chambers (Merck Millipore, MA, USA) assay was performed for cellular invasiveness detection. Cancer cells (5 × 10^4 cells/well) were re-suspended in free-serum DMEM and placed in the upper Boyden chamber compartment. Free-serum DMEM was also placed in the lower compartment of the chamber. Afterwards, the Boyden chamber was placed at 37°C and 95% air/5% CO2 for 24 h. Invasive cancer cells within the lower chamber compartment were detected by using the calcein-AM (60 nM, 1 h) assay at 37°C. Calcein-fluorescence was measured at λexcitation = 485 nm and λemission = 520 nm in a Nunclon microplate reader (Roskilde, Denmark).
S1 Figure. Cancer invasiveness assay in metastatic cancer cells exposed to MA (A) and perhexiline (B) for 24 h. All cancer cell invasiveness was compared with MDA-MB-231 cells, which are cancer cells with the highest invasiveness ability. n=3; *P < 0.05 vs. MDA-MB-231 non-treated cells.

[3] = tested on: MDA-MB-231 and MDA-MB-468 cells; experiment: Cell migration, wound healing assay; assay type: cell-based; conditions: Homo sapiens; 15 μM perhexiline
Method: The wound healing assay was performed for cell migration detection. In petri dishes with full DMEM, cancer cells (5 x 10^6 cells/well) were cultured at 37°C under 95% air and 5% CO2 until 80–90% confluence was attained. Afterwards, cell culture was wounded with a 1 mL pipette tip, washed twice with PBS (155 mM NaCl, 1.5 mM KH2PO4, 2.7 mM NaH2PO4, pH 7.2) and subsequently incubated at 37°C with fresh non-serum DMEM. Cellular migration images were taken in an inverted microscope (Zeiss, Thornwood, NY, USA) after 0 and 24 h incubation time. Using a graduated reticule (Zeiss, Thornwood, NY, USA), cellular migration was assessed from the petri dish’s border to its center distance travelled.
S2 Figure. Migratory capacity in metastatic triple negative breast cancer cells exposed to perhexiline. n=3; *P < 0.05 vs. Control (Non-treated cells)

[4] = tested on: HeLa, MDA MB-231, and A548 (lung cancer) cells; experiment: Oxygen consumption of cancer cells; assay type: cell-based; conditions: Homo sapiens, MDA MB-231, A548 cells
Method: For oxidative phosphorylation (OxPhos) flux, cells (2–5 mg protein/mL) were incubated at 37°C in air saturated KR medium plus 5 mM glucose. To distinguish the oxygen consumption associated to OxPhos, the cells were incubated with 5 μM oligomycin (Sigma-Aldrich, MO, USA), a potent, specific, and permeable inhibitor of the mitochondrial ATP synthase. The net OxPhos rate was determined by using a Clark type electrode, as previously described and by using a high-resolution respirometer (Oroboros Instruments, Innsbruck, Austria) at 37°C. The contribution of OxPhos and glycolysis to the cellular ATP supply was determined, respectively, from the net OxPhos rate (oligomycin-sensitive respiration) multiplied by the ATP/O or P»/O2 ratio that corresponds to 2.5 or 5, and from the rate of lactate production, assuming a stoichiometry of 1 mol of ATP produced per 1 mol of lactate produced.

Breast MCF-7 cells = experiment: Cell proliferation, 24 h drug exposure; assay type: cell-based, human; conditions: Homo sapiens, MCF7; Breast MCF-7 (low metastatic); 24 h; read-out: IC50 for proliferation cell rate
Method: as §1, §3

Colorectal COLO205 cells = experiment: Cell proliferation, 24 h drug exposure; assay type: cell-based, human; conditions: Homo sapiens, COLO 205; Colorectal COLO205; 24 h; read-out: IC50 for proliferation cell rate
Method: as §1, §3

Colorectal HCT116 cells = experiment: Cell proliferation, 24 h drug exposure; assay type: cell-based, human; conditions: Homo sapiens, HCT-116; Colorectal HCT116; 24 h; read-out: IC50 for proliferation cell rate
Method: as §1, §3

Breast MDA-MB-468 cells = experiment: Cell proliferation, 24 h drug exposure; assay type: cell-based, human; conditions: Homo sapiens; Breast MDA-MB-468; 24 h; read-out: IC50 for proliferation cell rate
Method: as §1, §3

non-cancer cells = experiment: Non-cancer cell proliferation, pooled; assay type: cell-based; conditions: Mus musculus, 24 h, read-out: IC50 values for non-cancer cells (range)
Method: as §1, with “For experimentation, cancer cells (3–5 x 10^6 cells) were cultured in DMEM (with 25 mM glucose) for 24 h in the absence of drugs. Afterwards, old-medium was replaced with fresh DMEM medium (with 25 mM glucose) in the absence (control, non-treated cells) or in the presence of logarithmic concentrations of Aur and MA for 24 h more, under the same culture conditions described above.” left out
as §2, with “The viability of cancer cells was > 95% after treatment with drugs.” left out

Prostate PC3 cells = experiment: Cell proliferation, 24 h drug exposure; assay type: cell-based, human; conditions: Homo sapiens, PC-3; Prostate PC3; 24 h; read-out: IC50 for proliferation cell rate
Method: as §1, §3

Row | Structure (SMILES) | IC50 (Glioblastoma U373 cells) | IC50 (Cervix HeLa cells) | effect on proliferation rate, OxPhos, cellular invasiveness (HeLa cells) | IC50 (Breast MDA-MB-231 cells) | IC50 (cancer cell lines) | IC50 (Glioblastoma U373 cells; Homo sapiens, U373 MG) | IC50 (Cervix HeLa cells; Homo sapiens) | IC50 (3T3 mouse fibroblasts) | IC50 [1] | inhibition of cell invasiveness [2] | inhibition at 15 µM [3] | inhibition at 10 µM [4] | IC50 (Breast MCF-7 cells) | IC50 (Colorectal COLO205 cells) | IC50 (Colorectal HCT116 cells) | IC50 (Breast MDA-MB-468 cells) | IC50 (Breast MDA-MB-231 cells; Homo sapiens) | IC50 (non-cancer cells) | IC50 (Prostate PC3 cells) | effect on cancer cell proliferation (cancer cell lines; up to 500 μM, 24 h incubation)
1 | N.N.[Cl][Pt][Cl] [CP, cisplatin] | > 1000 µM | > 1000 µM | no effect | 72 µM |  |  |  |  |  |  |  |  |  |  |  |  |  |  |  | 
2 | C1CCC(C(CC2CCCCN2)C2CCCCC2)CC1 (stereo not drawn) [Perhexiline] |  |  |  |  | 4 to 20 µM | 18.5 ± 2 µM | 4 ± 3 µM | 81.5 ± 8 µM | > 100 µM | 37–53% | 50 to 60% | 36 to 70% | 20.5 ± 10 µM | 16 ± 5 µM | 16 ± 7 µM | 15 ± 0.8 µM | 11 ± 0.6 µM | 30 to 100 µM |  | 
3 | CCC(C)(C)C(=O)O[C@H]1C[C@@H](C)C=C2C=C[C@H](C)[C@H](CC[C@@H]3C[C@@H](O)CC(=O)O3)[C@H]21 [Simvastatin] |  |  |  |  | 31 to 147 µM | 131 ± 41 µM | 31 ± 13 µM | 222 ± 60 µM | 100 ± 32 µM |  |  |  | 126 ± 65 µM |  | 147 ± 58 µM |  | 111 ± 45 µM | 100 to 222 µM | 31 ± 16 µM | 
4 | CC1=C(CC(=O)O)c2cc(F)ccc2/C1=C\c1ccc([S+](C)[O-])cc1 (stereo not drawn) [Sulindac] |  |  |  |  |  | > 500 µM | > 500 µM | > 500 µM | > 500 µM |  |  |  | > 500 µM |  | > 500 µM |  | 463 µM |  |  | not significantly affected

Source: publication PMC11407620, “Repurposing auranofin and meclofenamic acid as energy-metabolism inhibitors and anti-cancer drugs” (PLOS ONE, 2024)
